Reference: patent US7687470B2, “Avermectin and avermectin monosaccharide substituted in the 4″- and 4″ position respectively” (Syngenta Crop Protection, Inc., priority 2005, dated 2010)

System: Diabrotica balteata
Assay: Activity against Diabrotica balteata (sprayed maize seedlings)
Type: in vivo
Details: 12.5 ppm, spray on maize seedlings, second-stage larvae, after 6 days; b227: good activity corresponding to a mortality of at least 50 to 60%
Method: Maize seedlings are sprayed with an aqueous emulsion spray liquor which comprises 12.5 ppm of active compound and, after the spray coating has dried on, populated with 10 larvae of the second stage of Diabrotica balteata and then introduced into a plastic container. After 6 days, the reduction in the population in percent (% activity) is determined by comparing the dead larvae between the treated and the untreated plants.

CCC(C)C1OC2(C=CC1C)CC1CC(CC=C(C)C(OC3CC(OC)C(OC4CC(OC)C(C)(NC=O)C(C)O4)C(C)O3)C(C)C=CC=C3COC4C(O)C(C)=CC(C(=O)O1)C34O)O2 (stereo not shown) [Table A8]
activity in this test (in words): good activity
